Measurements published in PMC12910644 (Journal of Medicinal Chemistry, 2026).

How the values were obtained:
CK1γ1 [1] = molecular target: T1, CK1γ1 (Homo sapiens, UniProt Q9HCP0); test: CK1γ1 NanoBRET assay with tracer 23, intact cells; type: cell-based; conditions: intact HEK293 cells, N = 1
CK1γ2 [2] = molecular target: T2, CK1γ2 (Homo sapiens, UniProt P78368); test: CK1γ2 NanoBRET assay with tracer 23, intact cells; type: cell-based; conditions: intact HEK293 cells, N = 1
CK1γ1 [3] = molecular target: T1, CK1γ1; test: Eurofins radiometric enzymatic assay CK1γ1; type: biochemical
CK1γ2 [4] = molecular target: T2, CK1γ2; test: Eurofins radiometric enzymatic assay CK1γ2; type: biochemical
CK1γ3 [5] = molecular target: T3, CK1γ3 (Homo sapiens, UniProt Q9Y6M4); test: Eurofins radiometric enzymatic assay CK1γ3; type: biochemical; conditions: read-out: enzymatic IC50 CK1γ3, ATP at Km, N = 1
Target sequence in this assay (Q9Y6M4 33-362): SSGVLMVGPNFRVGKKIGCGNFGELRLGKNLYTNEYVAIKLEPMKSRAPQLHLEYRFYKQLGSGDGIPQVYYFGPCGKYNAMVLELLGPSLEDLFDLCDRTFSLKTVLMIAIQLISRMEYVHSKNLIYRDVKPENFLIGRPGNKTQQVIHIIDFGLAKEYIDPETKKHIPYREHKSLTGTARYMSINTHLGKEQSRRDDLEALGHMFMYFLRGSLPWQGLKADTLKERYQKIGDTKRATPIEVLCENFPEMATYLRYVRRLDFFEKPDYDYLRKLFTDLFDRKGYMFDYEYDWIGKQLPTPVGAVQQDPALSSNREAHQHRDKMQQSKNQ

CK1γ3 [6] = molecular target: T3, CK1γ3; test: CK1γ3 NanoBRET assay with tracer 23, intact cells; type: cell-based; conditions: intact HEK293 cells, N = 1
Target sequence in this assay (Q9Y6M4 whole entry): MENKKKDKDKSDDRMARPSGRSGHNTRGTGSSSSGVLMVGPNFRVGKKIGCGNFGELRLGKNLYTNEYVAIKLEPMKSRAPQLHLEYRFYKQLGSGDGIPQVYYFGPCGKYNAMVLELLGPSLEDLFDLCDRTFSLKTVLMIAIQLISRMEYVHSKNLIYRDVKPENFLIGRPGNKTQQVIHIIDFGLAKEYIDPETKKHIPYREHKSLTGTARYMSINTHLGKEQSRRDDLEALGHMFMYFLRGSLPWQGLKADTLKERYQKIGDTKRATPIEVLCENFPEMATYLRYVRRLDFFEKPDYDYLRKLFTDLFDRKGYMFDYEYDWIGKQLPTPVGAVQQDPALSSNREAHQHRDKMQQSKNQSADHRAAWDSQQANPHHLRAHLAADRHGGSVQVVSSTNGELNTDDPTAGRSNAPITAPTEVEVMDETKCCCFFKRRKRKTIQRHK

[7] = tested on: LRP6 phosphorylation at T1479; test: Western blot of LRP6 phosphorylation in HEK293 cells; type: cell-based, human; conditions: 5 μM, WNT3A and R-Spondin-1, 2 h
panel of 192 kinases [8] = molecular target: panel of 192 kinases (Homo sapiens, UniProt P78368); test: K192 NanoBRET kinase selectivity panel; type: cell-based; conditions: read-out: %Fractional Occupancy
Sequence of panel of 192 kinases (Homo sapiens, UniProt P78368) (P78368 whole entry): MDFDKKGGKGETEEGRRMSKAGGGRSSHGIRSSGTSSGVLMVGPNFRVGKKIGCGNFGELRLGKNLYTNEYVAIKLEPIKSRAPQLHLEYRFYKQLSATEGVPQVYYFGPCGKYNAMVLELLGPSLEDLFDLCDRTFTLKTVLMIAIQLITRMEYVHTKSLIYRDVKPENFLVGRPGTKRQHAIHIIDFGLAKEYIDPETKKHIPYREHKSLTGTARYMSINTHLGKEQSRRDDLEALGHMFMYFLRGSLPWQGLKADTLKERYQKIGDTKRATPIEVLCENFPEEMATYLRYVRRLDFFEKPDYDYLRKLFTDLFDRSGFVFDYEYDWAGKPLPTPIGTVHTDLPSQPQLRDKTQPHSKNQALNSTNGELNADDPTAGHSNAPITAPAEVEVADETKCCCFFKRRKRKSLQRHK

MOK = molecular target: T4, MOK (Homo sapiens, UniProt Q9UQ07); test: MOK NanoBRET assay; type: cell-based
T4 sequence (Q9UQ07 1-419): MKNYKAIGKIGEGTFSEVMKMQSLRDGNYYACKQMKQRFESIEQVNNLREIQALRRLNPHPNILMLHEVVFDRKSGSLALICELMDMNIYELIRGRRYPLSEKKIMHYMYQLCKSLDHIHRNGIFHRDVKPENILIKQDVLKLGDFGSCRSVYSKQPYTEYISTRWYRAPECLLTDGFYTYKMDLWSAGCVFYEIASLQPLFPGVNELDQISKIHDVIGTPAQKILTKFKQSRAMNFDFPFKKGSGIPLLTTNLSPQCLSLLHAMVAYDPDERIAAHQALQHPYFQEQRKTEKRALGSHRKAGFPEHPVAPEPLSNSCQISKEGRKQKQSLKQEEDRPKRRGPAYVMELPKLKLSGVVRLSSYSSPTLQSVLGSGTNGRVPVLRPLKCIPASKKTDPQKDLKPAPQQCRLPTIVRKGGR

HEK293 cells = test: CellTiter-Glo HEK293 cell viability assay; type: cell-based, human; conditions: 10 μM for 24 or 48 h
Dynamic light scattering = type: physicochemical; conditions: HBS buffer, 2% DMSO, 25 °C
panel of 192 kinases [9] = molecular target: panel of 192 kinases (Homo sapiens, UniProt Q9HAZ1); test: K192 NanoBRET kinase selectivity panel; type: cell-based; conditions: read-out: %Fractional Occupancy
Sequence of panel of 192 kinases (Homo sapiens, UniProt Q9HAZ1) (Q9HAZ1 whole entry): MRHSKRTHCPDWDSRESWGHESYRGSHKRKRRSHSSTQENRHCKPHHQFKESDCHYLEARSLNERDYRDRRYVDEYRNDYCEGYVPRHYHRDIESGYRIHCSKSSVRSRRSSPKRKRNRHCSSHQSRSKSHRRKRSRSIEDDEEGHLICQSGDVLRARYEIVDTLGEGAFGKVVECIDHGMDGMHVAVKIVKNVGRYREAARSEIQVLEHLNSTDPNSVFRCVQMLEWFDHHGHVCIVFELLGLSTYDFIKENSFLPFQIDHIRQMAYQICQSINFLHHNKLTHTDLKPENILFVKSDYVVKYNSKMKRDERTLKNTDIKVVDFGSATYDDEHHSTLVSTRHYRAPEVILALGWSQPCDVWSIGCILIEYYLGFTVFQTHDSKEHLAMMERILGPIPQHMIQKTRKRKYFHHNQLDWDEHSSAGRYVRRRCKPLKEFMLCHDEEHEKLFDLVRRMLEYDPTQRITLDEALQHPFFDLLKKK

CLK4 = CLK4 (Homo sapiens, UniProt Q9HAZ1); test: CLK4 NanoBRET assay
Sequence of CLK4 (Q9HAZ1 whole entry): as above

[10] = read-out: NB IC50 CK1γ1, tracer 23
[11] = read-out: NB IC50 CK1γ2, tracer 23
[12] = read-out: NB IC50 CK1γ3, tracer 23

T2 sequence (P78368 whole entry): as the sequence (P78368 whole entry) above
T1 sequence (Q9HCP0 whole entry): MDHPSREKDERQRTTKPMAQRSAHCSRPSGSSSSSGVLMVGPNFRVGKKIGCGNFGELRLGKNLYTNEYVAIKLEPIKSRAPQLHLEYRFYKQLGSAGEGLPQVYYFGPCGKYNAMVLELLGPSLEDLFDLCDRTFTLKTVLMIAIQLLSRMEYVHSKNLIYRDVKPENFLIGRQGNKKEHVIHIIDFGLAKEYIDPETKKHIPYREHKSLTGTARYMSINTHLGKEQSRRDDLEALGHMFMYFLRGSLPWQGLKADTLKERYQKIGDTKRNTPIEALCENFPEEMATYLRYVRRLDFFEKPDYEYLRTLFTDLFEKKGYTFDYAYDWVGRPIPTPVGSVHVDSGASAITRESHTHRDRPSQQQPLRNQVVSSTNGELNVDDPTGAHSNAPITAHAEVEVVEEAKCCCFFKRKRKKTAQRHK

SMILES	IC50 (CK1γ1 [1]; NB IC50 CK1γ1, tracer 23)	IC50 (CK1γ2 [2]; NB IC50 CK1γ2, tracer 23)	IC50 (CK1γ1 [3])	IC50 (CK1γ2 [4])	IC50 (CK1γ3 [5])	IC50 (CK1γ3 [6]; NB IC50 CK1γ3, tracer 23)	also measured
N#Cc1ccc2nc(Nc3ccc(N4CCOCC4)cc3)[nH]c2c1 [Compound 4, 2-((4-morpholinophenyl)amino)-1H-benzo[d]imidazole-6-carbonitrile]	910 nM	920 nM	430 nM	81 nM	1300 nM	–	–
COc1cc(N2CCOCC2)ccc1Nc1nc2ccc(C#N)cc2[nH]1 [Compound 5, 2-((2-Methoxy-4-morpholinophenyl)amino)-1H-benzo[d]imidazole-6-carbonitrile]	> 30000 nM	> 30000 nM	5520 nM	4170 nM	2750 nM	> 30000 nM	LRP6 phosphorylation at T1479 [7]: did not occur
N#Cc1ccc2nc(Nc3ccc(N4CCOCC4)c(F)c3)[nH]c2c1 [Compound 9, 2-((3-Fluoro-4-morpholinophenyl)amino)-1H-benzo[d]imidazole-6-carbonitrile]	980 nM	770 nM	212 nM	34 nM	656 nM	–	–
N#Cc1ccc2nc(Nc3ccc(N4CCOCC4)c(C(F)(F)F)c3)[nH]c2c1 [Compound 10, 2-((4-Morpholino-3-(trifluoromethyl)phenyl)amino)-1H-benzo[d]imidazole-6-carbonitrile]	1400 nM	780 nM	120 nM	34 nM	–	1350 nM	–
N#Cc1ccc2nc(Nc3cc(F)c(N4CCOCC4)c(F)c3)[nH]c2c1 [Compound 11, 2-((3,5-Difluoro-4-morpholinophenyl)amino)-1H-benzo[d]imidazole-6-carbonitrile]	920 nM	–	121 nM	25 nM	976 nM	3300 nM	–
N#Cc1ccc2nc(Nc3ccc(N4CCOCC4)c(Cl)c3)[nH]c2c1 [Compound 14, 2-((3-Chloro-4-morpholinophenyl)amino)-1H-benzo[d]imidazole-6-carbonitrile]	180 nM	180 nM	–	–	958 nM	–	receptor occupancy at 1 µM (panel of 192 kinases [8]): 74%; IC50 (MOK): > 5 µM; HEK293 cell viability (CellTiter-Glo) (HEK293 cells): did not impact cell viability; aqueous solubility in DLS (Dynamic light scattering): good aqueous solubility
N#Cc1ccc2nc(Nc3ccc(N4CCOCC4)c(Br)c3)[nH]c2c1 [Compound 15, 2-((3-Bromo-4-morpholinophenyl)amino)-1H-benzo[d]imidazole-6-carbonitrile]	580 nM	110 nM	–	–	700 nM	110 nM	–
N#Cc1ccc2[nH]c(Nc3ccc(N4CCCCC4)c(Cl)c3)nc2c1 [Compound 20, 2-((3-Chloro-4-(piperidin-1-yl)phenyl)amino)-1H-benzo[d]imidazole-5-carbonitrile]	380 nM	250 nM	–	–	475 nM	300 nM	–
CN1CCN(c2ccc(Nc3nc4ccc(C#N)cc4[nH]3)cc2Cl)CC1 [Compound 21, 2-((3-Chloro-4-(4-methylpiperazin-1-yl)phenyl)amino)-1H-benzo[d]imidazole-6-carbonitrile]	170 nM	220 nM	–	–	431 nM	180 nM	receptor occupancy at 1 µM (panel of 192 kinases [9]): 49%; IC50 (CLK4): 570 nM
Cc1ccc2nc(NC(=O)CSc3nc4c(c(=O)n3-c3ccc(F)cc3)SCC4)sc2c1 [IWP-3, reference compound]	–	–	–	–	–	–	IC50 (CK1γ1 [1]; [10]): > 30000 nM; IC50 (CK1γ2 [2]; [11]): > 30000 nM; IC50 (CK1γ3 [6]; [12]): > 30000 nM
Nc1nccc(-c2c(-c3ccc(F)cc3)ncn2C2CCCCC2)n1 [PF-670462, reference compound]	–	–	–	–	–	–	IC50 (CK1γ1 [1]; [10]): > 30000 nM; IC50 (CK1γ2 [2]; [11]): > 30000 nM; IC50 (CK1γ3 [6]; [12]): > 30000 nM
